ChEMBL document CHEMBL1201862, “PubChem BioAssay data set” (2004)
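Method: 48-hour compound exposure of cells in 96-well plates, five concentrations, linear interpolation of endpoints. GI50 marks 50% less growth.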 The source made the active and inactive calls. No stated cut-off is given here; in the data, active = GI50 up to about 1.1 µM and inactive = higher.

Assays:
Experiment in all cases: DTP human tumour cell line panel, 48 h
RXF 393 = system: RXF 393
M19-MEL = system: M19-MEL
SNB-75 = system: SNB-75
SN12C = system: SN12C
A549 = system: A549
U-251 = system: U-251
T47D = system: T47D
Malme-3M = system: Malme-3M
OVCAR-3 = system: OVCAR-3
HOP-92 = system: HOP-92
EKVX = system: EKVX
SK-MEL-28 = system: SK-MEL-28
HOP-62 = system: HOP-62
LOX IMVI = system: LOX IMVI
SR = system: SR
SF-268 = system: SF-268
DLD-1 = system: DLD-1
LXFL 529 = system: LXFL 529
NCI-H522 = system: NCI-H522
MDA-MB-231 = system: MDA-MB-231
NCI-H226 = system: NCI-H226
UO-31 = system: UO-31
DMS-273 = system: DMS-273
HCC 2998 = system: HCC 2998
IGROV-1 = system: IGROV-1
HOP-18 = system: HOP-18
UACC-62 = system: UACC-62
OVCAR-4 = system: OVCAR-4
HCT-15 = system: HCT-15
SNB-78 = system: SNB-78
NCI/ADR-RES = system: NCI/ADR-RES
MOLT-4 = system: MOLT-4
KM-20L2 = system: KM-20L2
MDA-N = system: MDA-N
SF-295 = system: SF-295
RPMI-8226 = system: RPMI-8226
KM12 = system: KM12
NCI-H23 = system: NCI-H23
M14 = system: M14
A498 = system: A498
HL-60 = system: HL-60
SNB-19 = system: SNB-19
786-0 = system: 786-0
HT-29 = system: HT-29
K562 = system: K562
ACHN = system: ACHN
PC-3 = system: PC-3
COLO 205 = system: COLO 205
TK-10 = system: TK-10
DU-145 = system: DU-145
Hs-578T = system: Hs-578T
DMS-114 = system: DMS-114
XF498 = system: XF498
MCF7 = system: MCF7
UACC-257 = system: UACC-257
SK-MEL-5 = system: SK-MEL-5
NCI-H460 = system: NCI-H460
OVCAR-5 = system: OVCAR-5
SW-620 = system: SW-620
SK-MEL-2 = system: SK-MEL-2
MDA-MB-435 = system: MDA-MB-435
SF-539 = system: SF-539
BT-549 = system: BT-549
HCT-116 = system: HCT-116
SK-OV-3 = system: SK-OV-3
CCRF-CEM = system: CCRF-CEM
OVCAR-8 = system: OVCAR-8
RXF 631 = system: RXF 631
CAKI-1 = system: CAKI-1

Measured: GI50

CC[C@H]1CN2CCc3cc(OC)c(OC)cc3[C@@H]2C[C@@H]1C[C@H]1NCCc2c1[nH]c1ccc(O)cc21 [TUBULOSINE]
inactive: NCI/ADR-RES 1.73 µM
active: RXF 393 0.016 µM | M19-MEL < 0.01 µM | SNB-75 < 0.01 µM | SN12C < 0.01 µM | A549 < 0.01 µM | U-251 < 0.0103 µM | T47D < 0.0106 µM | Malme-3M 0.0421 µM | OVCAR-3 0.0276 µM | HOP-92 0.0105 µM | EKVX 0.0294 µM | SK-MEL-28 0.0211 µM | HOP-62 < 0.01 µM | LOX IMVI < 0.01 µM | SR < 0.215 µM | SF-268 < 0.0105 µM | DLD-1 0.0279 µM | LXFL 529 0.0202 µM | NCI-H522 < 0.01 µM | MDA-MB-231 < 0.01 µM | NCI-H226 < 0.0113 µM | UO-31 0.326 µM | DMS-273 < 0.01 µM | HCC 2998 < 0.0105 µM | IGROV-1 0.0157 µM | HOP-18 0.0454 µM | UACC-62 0.0182 µM | OVCAR-4 < 0.01 µM | SNB-78 0.0136 µM | MOLT-4 < 0.01 µM | KM-20L2 0.0153 µM | MDA-N < 0.01 µM | SF-295 0.0195 µM | RPMI-8226 < 0.0133 µM | KM12 0.0246 µM | NCI-H23 < 0.0113 µM | M14 < 0.0125 µM | A498 0.0301 µM | HL-60 < 0.01 µM | SNB-19 < 0.01 µM | 786-0 < 0.01 µM | HT-29 < 0.01 µM | K562 < 0.013 µM | ACHN 0.0396 µM | PC-3 < 0.0156 µM | COLO 205 < 0.01 µM | TK-10 0.0388 µM | DU-145 < 0.01 µM | Hs-578T 0.0169 µM | DMS-114 < 0.01 µM | XF498 0.0188 µM | MCF7 < 0.01 µM | UACC-257 0.0582 µM | SK-MEL-5 0.0135 µM | NCI-H460 0.0102 µM | OVCAR-5 0.0153 µM | SW-620 < 0.0119 µM | SK-MEL-2 0.0137 µM | MDA-MB-435 < 0.0125 µM | SF-539 0.0164 µM | BT-549 0.191 µM | HCT-116 0.0102 µM | SK-OV-3 0.0222 µM | CCRF-CEM < 0.01 µM | OVCAR-8 0.0125 µM
0.384 µM: HCT-15

CCCC(=O)OCC1OC2OC(C)(C)OC2C2OC(C)(C)OC12 (stereo not drawn)
inactive: RXF 393 > 100 µM | M19-MEL > 100 µM | A549 > 100 µM | RXF 631 > 100 µM | U-251 > 100 µM | HOP-92 > 100 µM | EKVX > 100 µM | SK-MEL-28 > 100 µM | HOP-62 > 100 µM | SR > 100 µM | NCI-H522 > 100 µM | NCI-H226 19 µM | UO-31 > 100 µM | DMS-273 > 100 µM | IGROV-1 > 100 µM | SNB-78 > 100 µM | MOLT-4 > 100 µM | SF-295 > 100 µM | KM12 > 100 µM | NCI-H23 > 100 µM | M14 > 100 µM | A498 > 100 µM | HL-60 > 100 µM | SNB-19 > 100 µM | HT-29 > 100 µM | ACHN > 100 µM | TK-10 23.6 µM | UACC-257 > 100 µM | NCI-H460 > 100 µM | OVCAR-5 > 100 µM | HCT-116 > 100 µM | SK-OV-3 > 100 µM | CCRF-CEM > 100 µM | OVCAR-8 > 100 µM

COc1ccc(NC(=O)C/C(C)=N\N=C(N)N)c([N+](=O)[O-])c1
inactive: RXF 393 > 100 µM | M19-MEL > 100 µM | SNB-75 > 100 µM | SN12C > 100 µM | A549 > 100 µM | U-251 > 100 µM | Malme-3M > 100 µM | OVCAR-3 > 100 µM | HOP-92 > 100 µM | EKVX > 100 µM | SK-MEL-28 > 100 µM | HOP-62 > 100 µM | LOX IMVI 33.9 µM | SR 23.3 µM | SF-268 > 100 µM | DLD-1 34.5 µM | LXFL 529 > 100 µM | NCI-H522 > 100 µM | CAKI-1 > 100 µM | NCI-H226 > 100 µM | UO-31 > 100 µM | DMS-273 > 100 µM | HCC 2998 > 100 µM | IGROV-1 > 100 µM | HOP-18 > 100 µM | UACC-62 > 100 µM | OVCAR-4 > 100 µM | SNB-78 > 100 µM | MOLT-4 > 100 µM | KM-20L2 > 100 µM | SF-295 > 100 µM | RPMI-8226 > 100 µM | KM12 > 100 µM | NCI-H23 > 100 µM | M14 > 100 µM | A498 > 100 µM | HL-60 88.5 µM | SNB-19 > 100 µM | 786-0 > 100 µM | HT-29 > 100 µM | K562 > 100 µM | ACHN > 100 µM | COLO 205 > 100 µM | TK-10 > 100 µM | DMS-114 > 100 µM | XF498 > 100 µM | UACC-257 > 100 µM | SK-MEL-5 > 100 µM | NCI-H460 > 100 µM | OVCAR-5 > 100 µM | SK-MEL-2 > 100 µM | SF-539 > 100 µM | HCT-116 > 100 µM | SK-OV-3 > 100 µM | CCRF-CEM > 100 µM | OVCAR-8 > 100 µM
> 100 µM: HCT-15
